Assay results taken from article PMC9785777, “Antidiabetic Potential of Novel 1,3,5-Trisubstituted-2-Thioxoimidazloidin-4-One Analogues: Insights into α-Glucosidase, α-Amylase, and Antioxidant Activities” (Pharmaceuticals, 2022).
Values joined by “and” are separate entries in the source; they are usually repeats but may differ in a detail not shown here. Equal entries are not always repeated.

What was measured:
[1] = DPPH free radical scavenging assay; details: for DPPH free radical scavenging IC50: n = 4
Text: The antioxidant capability of compounds 5a and 7a was estimated utilizing the DPPH (2,2-diphenyl-1- picrylhydrazyl) scavenging assay to assess the free radical scavenger activity. DPPH is a stable free radical substrate with a purple color which upon reaction with an antioxidant compound, converts into 1,1-diphenyl-2-picryl hydrazine, a […] compound. The DPPH assay is widely applied for the investigation of superoxide radical scavenging activity. In this regard, compounds 5a and 7a were incubated at different concentrations (3.12, 6.25, 12.5, 25, 50, 100, and 200 µg/mL) with DPPH substrate and the absorption was assessed by ELISA at 510 nm. In our investigations, Trolox, a water-soluble analogue of vitamin E, was applied as a standard antioxidant reference drug. […] Further, Qamar et al. synthesized and evaluated the antioxidant activity of some novel N3-substituted-2-thiohydantoins.
According to Valko et al., the ELISA approach was used to analyze the free-radical DPPH scavenging activity of compounds (5a and 7a) at different concentrations (3.12, 6.25, 12.5, 25, 50, 100, and 200 µg/mL). The DPPH assay assesses the hydrogen-donating activity and thus provides an evaluation of the antioxidant activity via estimating the DPPH free-radical scavenging activity. The color intensity of the reaction mixture was measured after a purple-colored stable free radical (DPPH) was reduced into the yellow-colored diphenylpicryl hydrazinem. Briefly, 200 µL of different concentrations of compounds 5a and 7a were mixed with 50 µL of DPPH (0.659 mM) solution, and the mixture was incubated at 25 °C for 20 min. The absorbance of the reaction mixture was estimated after incubation at 510 nm. In our investigations, trolox was employed as standard reference drug. A control reaction was performed, and the inhibitory efficiency of DPPH radical-scavenging activity was determined using the equation below: % Inhibition = (A0 − A1)/A0 × 100 (1) where A0 is absorbance of […] and A1 is the absorbance of the compound.

[2] = target: T1, α-glucosidase enzyme (EC3.2.1.20) (Saccharomyces cerevisiae, UniProt P53341); experiment: biochemical; details: for inhibition at 1 µg/mL / inhibition at 10 µg/mL / inhibition at 100 µg/mL / inhibition at 1000 µg/mL: read-out: % inhibition of α-glucosidase
T1 construct: purchased Sigma-Aldrich
T1 sequence (P53341 whole entry): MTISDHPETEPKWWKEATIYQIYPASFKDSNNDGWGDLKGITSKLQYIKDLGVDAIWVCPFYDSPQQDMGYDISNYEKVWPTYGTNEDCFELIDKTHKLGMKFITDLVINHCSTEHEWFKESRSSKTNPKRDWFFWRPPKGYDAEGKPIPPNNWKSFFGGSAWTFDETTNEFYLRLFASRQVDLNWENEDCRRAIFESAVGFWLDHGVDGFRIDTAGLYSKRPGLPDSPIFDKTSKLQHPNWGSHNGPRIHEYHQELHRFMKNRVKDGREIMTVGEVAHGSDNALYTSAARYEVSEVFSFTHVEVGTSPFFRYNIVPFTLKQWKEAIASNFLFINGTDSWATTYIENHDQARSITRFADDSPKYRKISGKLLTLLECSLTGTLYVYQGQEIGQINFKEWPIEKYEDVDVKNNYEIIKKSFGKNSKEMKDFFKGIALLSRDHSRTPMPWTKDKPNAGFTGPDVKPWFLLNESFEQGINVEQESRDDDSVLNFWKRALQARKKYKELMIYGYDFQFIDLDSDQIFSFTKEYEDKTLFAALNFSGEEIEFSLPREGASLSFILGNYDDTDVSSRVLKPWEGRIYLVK
Text: The α-glucosidase enzyme is mainly expressed in the small intestine and catalyzes the breakdown of carbohydrates into glucose units by cleaving the glucosidic bonds. α-Glucosidase blockers are the first-line drugs for the treatment of non-insulin-dependent DM by suppressing carbohydrate hydrolysis and consequently retarding glucose absorption into the bloodstream and reducing postprandial hyperglycemia. α-Glucosidase is, thus, considered to be an attractive pharmaceutical target for the treatment of […] via control of the blood glucose levels. Accordingly, there is a continuous need to develop a potential class of α-glucosidase inhibitors. Toward this aim, we explored the potency of the synthesized compounds to inhibit the activity of α-glucosidase. We examined the inhibitory activity of the synthesized compounds following the reported assay by Peytam et al.. Thus, the compounds at different concentrations (1000, 100, 10, and 1 µg/mL) were incubated with α-glucosidase and subsequently […] was added and the absorbance was monitored at 405 nm. […] To further investigate the structural aspects of 1,3-thiohydantoin scaffold, a substitution at the N1-position with the methyl-proponate group was performed. […] Nevertheless, it has adverse gastrointestinal effects including diarrhea and flatulence. Thus, the discovery of a novel class of potent antidiabetic agents is urgently demanded.
An ELISA reader was used to assess the inhibition of α-glucosidase by 1,3,5-trisubstituted-2-thioxoimidazolidin-4-ones derivatives at various doses (1000, 100, 10, and 1 µg/mL) according to Peytam et al.. […] Then, the substrate (25 µL, 4 mM) was added to the mentioned mixture and allowed to incubate at 37 °C for 20 min. Finally, the change in absorbance at 405 nm was monitored using a Cytation 3 hybrid microplate reader (BioTek, Winooski, VT, USA). […] GraphPad prism 6.0 was used to calculate the IC50 values of the investigated compounds from the nonlinear regression curve (Systat Software, Inc. Tools for Science) (https://www.graphpad.com/scientific-software/prism/ (accessed on 1 September 2022)).

[3] = ROS-generation assay (H2O2 generated with DTT, HRP-phenol red, 610 nm); details: 50 µM compound, incubated with DTT; control 90.74±5.54
Text: The […] metabolites and enzymes (such as NADPH oxidase, lipoxygenase, and cytochrome P450) act together to mediate the production of ROS and diminish the counteractive oxidative damage. ROS can cause damage to DNA, lipid, proteins, and nucleic acids and the destruction of cell components leading to cell death. Toward this end, we aimed to investigate whether the mode of action of this class of compounds involved the generation of ROS. ROS-producing compounds upon reaction with a reducing agent in the presence of oxygen afford superoxide O^•−2 radical and hydrogen peroxide (H2O2) which could be quantitively estimated. Thus, compounds 5a and 7a (at 50 µM concentration) were incubated with the reducing agent dithiothreitol (DTT) and the generated H2O2 was subsequently assessed by monitoring the oxidation of phenol red in the presence of horseradish peroxidase (HRP) at the absorbance of 610 nm. We first examined the validity of the assay by examining the activity of a known ROS-producing standard drug. In our study, Celecoxib was utilized as a reference pharmacological ROS-generating drug. […] Next, we evaluated the potency of compounds 5a and 7a to produce ROS at a 50 µM concentration.
According to Nasiri et al., the antioxidant activity of compounds (5a, 7a) and Celecoxib was measured by an evaluation of ROS-generation using ELISA analysis. Three different solutions were prepared for the in vitro assessment of ROS-generation: phenol red, sodium hydroxide solution, and DTT. All reagents were provided by Sigma-Aldrich. A stock solution of DTT (20 mM) was prepared by dissolving […] of DTT in 500 µL of Hank’s Balanced Salt Solution (HBSS), and the obtained solution was preserved at −20 °C. The stock solution was further diluted with HBSS to 0.8 mM for each measurement. The HRP-PR solution was prepared by dissolving 1.8 mg of horseradish peroxidase (HRP) and 3 mg of phenol red (PR) in 10 mL of HBSS. […] After incubation, 1N NaOH was applied, and the absorbance at 610 nm was measured using a plate reader spectrometer. […]

| SMILES | %RSA (DPPH radical scavenging activity) ([1]; 3.12 µg/mL) [%] | %RSA (DPPH radical scavenging activity) ([1]; 6.25 µg/mL) [%] | %RSA (DPPH radical scavenging activity) ([1]; 12.5 µg/mL) [%] | %RSA (DPPH radical scavenging activity) ([1]; 25 µg/mL) [%] | %RSA (DPPH radical scavenging activity) ([1]; 50 µg/mL) [%] | %RSA (DPPH radical scavenging activity) ([1]; 100 µg/mL) [%] | %RSA (DPPH radical scavenging activity) ([1]; 200 µg/mL) [%] | DPPH free radical scavenging IC50 [1] [µg/mL] | IC50 [2] [µM] | inhibition at 1 µg/mL [2] [%] | inhibition at 10 µg/mL [2] [%] | inhibition at 100 µg/mL [2] [%] | inhibition at 1000 µg/mL [2] [%] | ROS produced (generated H2O2) [3] |
| --- | --- | --- | --- | --- | --- | --- | --- | --- | --- | --- | --- | --- | --- | --- |
| COC(=O)CCN1C(=S)N(N=C(C)c2ccccc2O)C(=O)C1=Cc1ccccc1O [Compound 5a, Methyl [5-(2-hydroxybenzylidene)-4-oxo-3-(2-hydroxyphenylethylidene)amino-2-thioxoimidazolidin-1-yl] propionate] | 12.8385 | 25.9268 | 34.2 | 49.2589 | 65.3256 | 84.0278 | 90.9673 | 51.75 | 11.6 | 35 | 58 | 75 | 86 | 132.4 pg/mL and 132.4 ± 2.16 pg/mL |
| COC(=O)CCN1C(=S)N(N=C(C)c2ccccc2O)C(=O)C1=Cc1ccccc1OC(C)=O [Compound 7a, Methyl [5-(2-acetoxybenzylidene)-4-oxo-3-(2-hydroxyphenylethylidene)amino-2-thioxoimidazolidin-1-yl] propionate] | 9.7382 | 18.9636 | 30.2839 | 45.4635 | 62.2992 | 81.6087 | 80.732 | 65.5 | 38.2 | 21.8 | 48.3 | 66.1 | 82.6 | 191.5 pg/mL and 191.5 ± 3.62 pg/mL |
